System: chicken embryonic stem cells
Assay: Titration kill curve of chicken ES cells under puromycin or neomycin selection
Type: cell-based
Parameters: key to Morphology of cES cells: ES cells are present.; ES cells are differentiated.; gone: no morphologically recognizable cells are present
Method: In a preferred embodiment, the concentration of puromycin required for selecting transfected cells is calculated as a titration kill curve. Titration kill curves for chicken embryonic stem cells are established by exposing cells in culture to puromycin concentrations varying from 0.0 to 1.0 μg/ml for 10 days (Table 7) and neomycin concentrations varying from 0.0 to 200 μg/ml (Table 8). The medium is changed every 2 days and fresh puromycin or neomycin is added. […] Puromycin concentrations of 0.3-1.0 μg/ml are used for selection of the transfected cultures. Neomycin concentrations over 40 μg/ml eliminated all cES cells within 7 days (Table 8).

## COc1ccc(C[C@H](N)C(=O)N[C@H]2[C@@H](O)[C@H](n3cnc4c(N(C)C)ncnc43)O[C@@H]2CO)cc1 [puromycin]
0.3 μg/ml puromycin, 3 changes of medium over a six day period
  presence of ES cells: absent from all wells
Puromycin 0.1 μg/ml, day 1
  Morphology of cES cells: ES
Puromycin 0.1 μg/ml, day 2
  Morphology of cES cells: ES
Puromycin 0.1 μg/ml, day 3
  Morphology of cES cells: ES
Puromycin 0.1 μg/ml, day 4
  Morphology of cES cells: ES
Puromycin 0.1 μg/ml, day 5
  Morphology of cES cells: ES
Puromycin 0.1 μg/ml, day 6
  Morphology of cES cells: ES
Puromycin 0.1 μg/ml, day 7
  Morphology of cES cells: ES
Puromycin 0.1 μg/ml, day 8
  Morphology of cES cells: ES
Puromycin 0.1 μg/ml, day 9
  Morphology of cES cells: ES
Puromycin 0.1 μg/ml, day 10
  Morphology of cES cells: ES
Puromycin 0.2 μg/ml, day 1
  Morphology of cES cells: ES
Puromycin 0.2 μg/ml, day 2
  Morphology of cES cells: ES
Puromycin 0.2 μg/ml, day 3
  Morphology of cES cells: ES
Puromycin 0.2 μg/ml, day 4
  Morphology of cES cells: ES
Puromycin 0.2 μg/ml, day 5
  Morphology of cES cells: ES
Puromycin 0.2 μg/ml, day 6
  Morphology of cES cells: ES
Puromycin 0.2 μg/ml, day 7
  Morphology of cES cells: ES
Puromycin 0.2 μg/ml, day 8
  Morphology of cES cells: ES
Puromycin 0.2 μg/ml, day 9
  Morphology of cES cells: ES
Puromycin 0.2 μg/ml, day 10
  Morphology of cES cells: ES
Puromycin 0.25 μg/ml, day 1
  Morphology of cES cells: ES
Puromycin 0.25 μg/ml, day 2
  Morphology of cES cells: ES
Puromycin 0.25 μg/ml, day 3
  Morphology of cES cells: ES
Puromycin 0.25 μg/ml, day 4
  Morphology of cES cells: ES
Puromycin 0.25 μg/ml, day 5
  Morphology of cES cells: ES
Puromycin 0.25 μg/ml, day 6
  Morphology of cES cells: diff
Puromycin 0.25 μg/ml, day 7
  Morphology of cES cells: diff
Puromycin 0.25 μg/ml, day 8
  Morphology of cES cells: diff/
Puromycin 0.25 μg/ml, day 9
  Morphology of cES cells: diff/
Puromycin 0.25 μg/ml, day 10
  Morphology of cES cells: diff/
Puromycin 0.3 μg/ml, day 1
  Morphology of cES cells: ES
Puromycin 0.3 μg/ml, day 2
  Morphology of cES cells: ES
Puromycin 0.3 μg/ml, day 3
  Morphology of cES cells: diff
Puromycin 0.3 μg/ml, day 4
  Morphology of cES cells: diff/
Puromycin 0.3 μg/ml, day 5
  Morphology of cES cells: diff/
Puromycin 0.3 μg/ml, day 6
  Morphology of cES cells: gone
Puromycin 0.3 μg/ml, day 7
  Morphology of cES cells: gone
Puromycin 0.3 μg/ml, day 8
  Morphology of cES cells: gone
Puromycin 0.3 μg/ml, day 9
  Morphology of cES cells: gone
Puromycin 0.3 μg/ml, day 10
  Morphology of cES cells: gone
Puromycin 0.4 μg/ml, day 1
  Morphology of cES cells: ES
Puromycin 0.4 μg/ml, day 2
  Morphology of cES cells: diff
Puromycin 0.4 μg/ml, day 3
  Morphology of cES cells: gone
Puromycin 0.4 μg/ml, day 4
  Morphology of cES cells: gone
Puromycin 0.4 μg/ml, day 5
  Morphology of cES cells: gone
Puromycin 0.4 μg/ml, day 6
  Morphology of cES cells: gone
Puromycin 0.4 μg/ml, day 7
  Morphology of cES cells: gone
Puromycin 0.4 μg/ml, day 8
  Morphology of cES cells: gone
Puromycin 0.4 μg/ml, day 9
  Morphology of cES cells: gone
Puromycin 0.4 μg/ml, day 10
  Morphology of cES cells: gone
Puromycin 0.5 μg/ml, day 1
  Morphology of cES cells: diff
Puromycin 0.5 μg/ml, day 2
  Morphology of cES cells: gone
Puromycin 0.5 μg/ml, day 3
  Morphology of cES cells: Gone
Puromycin 0.5 μg/ml, day 4
  Morphology of cES cells: gone
Puromycin 0.5 μg/ml, day 5
  Morphology of cES cells: gone
Puromycin 0.5 μg/ml, day 6
  Morphology of cES cells: gone
Puromycin 0.5 μg/ml, day 7
  Morphology of cES cells: gone
Puromycin 0.5 μg/ml, day 8
  Morphology of cES cells: gone
Puromycin 0.5 μg/ml, day 9
  Morphology of cES cells: gone
Puromycin 0.5 μg/ml, day 10
  Morphology of cES cells: gone
Puromycin 0.6 μg/ml, day 1
  Morphology of cES cells: diff
Puromycin 0.6 μg/ml, day 2
  Morphology of cES cells: gone
Puromycin 0.6 μg/ml, day 3
  Morphology of cES cells: gone
Puromycin 0.6 μg/ml, day 4
  Morphology of cES cells: gone
Puromycin 0.6 μg/ml, day 5
  Morphology of cES cells: gone
Puromycin 0.6 μg/ml, day 6
  Morphology of cES cells: gone
Puromycin 0.6 μg/ml, day 7
  Morphology of cES cells: gone
Puromycin 0.6 μg/ml, day 8
  Morphology of cES cells: gone
Puromycin 0.6 μg/ml, day 9
  Morphology of cES cells: gone
Puromycin 0.6 μg/ml, day 10
  Morphology of cES cells: gone
Puromycin 0.7 μg/ml, day 1
  Morphology of cES cells: diff
Puromycin 0.7 μg/ml, day 2
  Morphology of cES cells: gone
Puromycin 0.7 μg/ml, day 3
  Morphology of cES cells: gone
Puromycin 0.7 μg/ml, day 4
  Morphology of cES cells: gone
Puromycin 0.7 μg/ml, day 5
  Morphology of cES cells: gone
Puromycin 0.7 μg/ml, day 6
  Morphology of cES cells: gone
Puromycin 0.7 μg/ml, day 7
  Morphology of cES cells: gone
Puromycin 0.7 μg/ml, day 8
  Morphology of cES cells: gone
Puromycin 0.7 μg/ml, day 9
  Morphology of cES cells: gone
Puromycin 0.7 μg/ml, day 10
  Morphology of cES cells: gone
Puromycin 0.8 μg/ml, day 1
  Morphology of cES cells: gone
Puromycin 0.8 μg/ml, day 2
  Morphology of cES cells: gone
Puromycin 0.8 μg/ml, day 3
  Morphology of cES cells: gone
Puromycin 0.8 μg/ml, day 4
  Morphology of cES cells: gone
Puromycin 0.8 μg/ml, day 5
  Morphology of cES cells: gone
Puromycin 0.8 μg/ml, day 6
  Morphology of cES cells: gone
Puromycin 0.8 μg/ml, day 7
  Morphology of cES cells: gone
Puromycin 0.8 μg/ml, day 8
  Morphology of cES cells: gone
Puromycin 0.8 μg/ml, day 9
  Morphology of cES cells: gone
Puromycin 0.8 μg/ml, day 10
  Morphology of cES cells: gone

From patent US9144229B2, “Tissue specific expression of antibodies in chickens” (Synageva BioPharma Corp., priority 2002, dated 2015)
